Results taken from ChEMBL document CHEMBL1201862, “PubChem BioAssay data set” (2004).
Activity calls are given as the source filed them.

Assays:
Bcl-2-like protein 10 = target: T1, Bcl-2-like protein 10 (Homo sapiens, UniProt Q9HD36); experiment: Bcl-B/TR3 peptide binding disruption – biochemical, fluorescence polarization, FITC-TR3 peptide, selectivity assay for Bfl-1 inhibitor project, primary screen (AID 748);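 also: fluorescence polarization from a fluorescein-labelled TR3 peptide binding purified Bcl-B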
T1 sequence (Q9HD36 whole entry): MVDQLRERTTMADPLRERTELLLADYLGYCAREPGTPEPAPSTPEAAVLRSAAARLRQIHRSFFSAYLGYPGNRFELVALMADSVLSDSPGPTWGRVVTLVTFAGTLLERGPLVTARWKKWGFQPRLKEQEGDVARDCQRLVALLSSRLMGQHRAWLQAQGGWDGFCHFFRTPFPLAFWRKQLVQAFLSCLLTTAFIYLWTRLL

[1] = Trypanosoma cruzi growth suppression in host cells – NIH3T3 host cells, beta-gal luminescence, confirmation (AID 2044); assay type: functional, cell-based;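 also: intracellular parasites grown in NIH/3T3 mouse fibroblasts as host cells; luminescent beta-galactosidase reporter signal from transgenic T. cruzi replicating inside host cells; inhibitors lower the luminescence signal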
[2] = target: G-protein coupled receptor 55 (Homo sapiens, UniProt Q9Y2T6); experiment: selective activators of receptor GPR55 – imaging, U2OS cells, beta-arrestin-GFP redistribution, primary screen (AID 1961); assay type: functional
[3] = NIH3T3 cell viability loss – ATP luminescence, mouse fibroblasts, counter-screen, dose response (AID 2010); assay type: functional, cell-based;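 also: cells exposed to compound for about 90 hours before reading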
Hexokinase HKDC1 = target: T2, Hexokinase HKDC1 (Homo sapiens, UniProt Q2TB90); experiment: inhibition of HKDC1 glucose phosphorylation – biochemical, W721R variant, dose response (AID 504729); assay type: functional
T2 sequence (Q2TB90 whole entry): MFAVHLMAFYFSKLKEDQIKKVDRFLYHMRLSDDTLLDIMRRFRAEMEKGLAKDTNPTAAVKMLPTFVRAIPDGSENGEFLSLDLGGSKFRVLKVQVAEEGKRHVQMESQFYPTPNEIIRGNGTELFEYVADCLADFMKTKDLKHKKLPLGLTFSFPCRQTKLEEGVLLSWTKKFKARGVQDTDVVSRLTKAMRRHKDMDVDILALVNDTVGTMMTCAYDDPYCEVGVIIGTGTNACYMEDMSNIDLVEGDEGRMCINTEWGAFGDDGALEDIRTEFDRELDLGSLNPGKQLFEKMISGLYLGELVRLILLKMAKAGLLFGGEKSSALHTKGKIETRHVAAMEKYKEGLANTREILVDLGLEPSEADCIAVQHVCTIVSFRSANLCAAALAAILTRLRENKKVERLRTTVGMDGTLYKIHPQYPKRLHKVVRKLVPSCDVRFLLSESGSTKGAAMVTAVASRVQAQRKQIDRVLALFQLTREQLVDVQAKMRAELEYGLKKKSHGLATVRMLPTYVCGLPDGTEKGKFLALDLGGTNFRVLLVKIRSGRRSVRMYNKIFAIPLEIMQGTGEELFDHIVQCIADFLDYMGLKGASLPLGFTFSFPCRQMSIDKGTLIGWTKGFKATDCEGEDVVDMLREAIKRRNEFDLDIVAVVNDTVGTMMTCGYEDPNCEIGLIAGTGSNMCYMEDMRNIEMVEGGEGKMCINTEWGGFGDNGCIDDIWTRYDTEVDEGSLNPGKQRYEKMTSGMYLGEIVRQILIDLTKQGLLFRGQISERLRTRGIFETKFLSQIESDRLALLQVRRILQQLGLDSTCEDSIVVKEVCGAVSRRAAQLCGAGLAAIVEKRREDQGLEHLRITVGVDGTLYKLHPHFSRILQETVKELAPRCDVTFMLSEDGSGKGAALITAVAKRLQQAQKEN

[4] = target: Glyceraldehyde-3-phosphate dehydrogenase (Homo sapiens, UniProt P04406)
[5] = target: Induced myeloid leukemia cell differentiation protein Mcl-1 (Homo sapiens, UniProt Q07820); assay type: functional
Estrogen receptor = target: T3, Estrogen receptor (Homo sapiens, UniProt P03372);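 also: potency for inhibiting coactivator peptide recruitment to the receptor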
T3 sequence (P03372 whole entry): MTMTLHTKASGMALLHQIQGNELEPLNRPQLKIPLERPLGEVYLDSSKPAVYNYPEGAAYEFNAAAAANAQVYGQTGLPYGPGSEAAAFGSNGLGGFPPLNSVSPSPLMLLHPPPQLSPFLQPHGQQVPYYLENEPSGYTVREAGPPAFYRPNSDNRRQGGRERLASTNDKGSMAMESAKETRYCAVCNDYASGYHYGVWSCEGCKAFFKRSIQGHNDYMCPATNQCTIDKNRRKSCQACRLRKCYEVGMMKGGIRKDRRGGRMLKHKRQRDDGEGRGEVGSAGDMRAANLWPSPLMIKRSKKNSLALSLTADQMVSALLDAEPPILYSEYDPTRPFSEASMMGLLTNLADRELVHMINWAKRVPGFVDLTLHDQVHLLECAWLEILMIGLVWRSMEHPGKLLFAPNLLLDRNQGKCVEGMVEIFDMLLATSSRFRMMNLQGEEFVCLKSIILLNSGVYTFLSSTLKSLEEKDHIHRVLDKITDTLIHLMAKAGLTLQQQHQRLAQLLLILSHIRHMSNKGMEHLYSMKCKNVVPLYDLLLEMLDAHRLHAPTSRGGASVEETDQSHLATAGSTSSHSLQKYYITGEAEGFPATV

[6] = target: T4, Alkaline phosphatase, tissue-nonspecific isozyme (Homo sapiens, UniProt P05186); experiment: potency against alkaline phosphatase TNAP – biochemical, luminescent, dose response, SAR follow-up (AID 1056)
T4 sequence (P05186 whole entry): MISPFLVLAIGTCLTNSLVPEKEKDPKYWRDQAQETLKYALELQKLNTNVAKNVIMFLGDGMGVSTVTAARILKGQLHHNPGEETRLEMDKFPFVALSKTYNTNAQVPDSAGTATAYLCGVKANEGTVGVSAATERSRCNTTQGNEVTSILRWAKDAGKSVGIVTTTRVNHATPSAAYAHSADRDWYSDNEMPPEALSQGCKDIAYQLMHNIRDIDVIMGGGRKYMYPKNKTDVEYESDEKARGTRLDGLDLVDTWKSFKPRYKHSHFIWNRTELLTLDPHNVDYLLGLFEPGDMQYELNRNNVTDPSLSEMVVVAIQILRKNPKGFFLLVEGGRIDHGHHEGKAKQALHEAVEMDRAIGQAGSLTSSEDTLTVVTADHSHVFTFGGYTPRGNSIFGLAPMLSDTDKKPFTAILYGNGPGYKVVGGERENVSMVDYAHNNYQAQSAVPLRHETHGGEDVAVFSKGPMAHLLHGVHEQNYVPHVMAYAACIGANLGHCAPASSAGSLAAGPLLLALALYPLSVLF

Estrogen receptor beta = Estrogen receptor beta (Homo sapiens, UniProt Q92731);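 also: recombinant ER-beta bound to coactivator SRC1 peptide in presence of estradiol agonist; inhibitors block coactivator peptide binding and lower the FRET signal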
[7] = target: T5, Voltage-gated N-type calcium channel alpha-1B subunit/Amyloid beta A4 precursor protein-binding family A member 1 (Homo sapiens, UniProt Q00975+Q02410); assay type: protein assay
[8] = target: T5, Voltage-gated N-type calcium channel alpha-1B subunit/Amyloid beta A4 precursor protein-binding family A member 1; assay type: protein assay; remark: listed apart in the source
[9] = target: T6, Apoptotic protease-activating factor 1 (Homo sapiens, UniProt O14727); assay type: functional
T6 sequence (O14727 whole entry): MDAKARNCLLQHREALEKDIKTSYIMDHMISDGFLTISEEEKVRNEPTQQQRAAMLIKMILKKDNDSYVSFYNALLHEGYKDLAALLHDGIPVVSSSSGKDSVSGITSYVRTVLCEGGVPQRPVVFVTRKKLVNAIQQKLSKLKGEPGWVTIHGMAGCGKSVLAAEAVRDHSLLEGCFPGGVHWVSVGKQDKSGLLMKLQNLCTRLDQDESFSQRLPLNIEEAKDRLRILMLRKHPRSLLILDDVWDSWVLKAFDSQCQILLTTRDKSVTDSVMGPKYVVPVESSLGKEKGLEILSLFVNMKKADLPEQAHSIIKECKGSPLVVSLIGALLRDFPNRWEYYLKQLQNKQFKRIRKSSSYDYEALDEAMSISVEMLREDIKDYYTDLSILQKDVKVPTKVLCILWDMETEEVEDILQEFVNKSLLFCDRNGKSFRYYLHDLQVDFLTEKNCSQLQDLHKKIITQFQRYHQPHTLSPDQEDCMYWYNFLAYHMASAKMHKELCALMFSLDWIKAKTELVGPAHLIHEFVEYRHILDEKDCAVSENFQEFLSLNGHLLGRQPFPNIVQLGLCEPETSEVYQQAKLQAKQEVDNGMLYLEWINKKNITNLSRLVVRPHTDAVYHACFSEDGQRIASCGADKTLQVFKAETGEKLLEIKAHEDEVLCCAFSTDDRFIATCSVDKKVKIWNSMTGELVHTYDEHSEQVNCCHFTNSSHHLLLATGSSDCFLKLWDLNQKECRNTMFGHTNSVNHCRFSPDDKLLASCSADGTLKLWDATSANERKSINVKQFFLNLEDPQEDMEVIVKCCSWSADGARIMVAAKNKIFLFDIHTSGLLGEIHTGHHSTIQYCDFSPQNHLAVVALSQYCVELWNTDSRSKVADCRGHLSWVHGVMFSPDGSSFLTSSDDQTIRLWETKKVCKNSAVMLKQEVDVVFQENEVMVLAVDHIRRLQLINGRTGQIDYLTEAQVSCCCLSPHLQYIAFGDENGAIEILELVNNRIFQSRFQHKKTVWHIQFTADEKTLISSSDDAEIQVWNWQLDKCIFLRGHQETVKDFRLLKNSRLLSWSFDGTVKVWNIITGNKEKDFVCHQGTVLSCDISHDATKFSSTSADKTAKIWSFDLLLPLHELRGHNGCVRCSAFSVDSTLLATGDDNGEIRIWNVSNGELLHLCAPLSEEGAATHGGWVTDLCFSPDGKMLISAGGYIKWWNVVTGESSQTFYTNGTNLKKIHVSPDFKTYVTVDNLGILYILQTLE

[10] = target: T7, Mannose-6-phosphate isomerase (Homo sapiens, UniProt P34949); experiment: MPI inhibition at elevated mannose 6-phosphate – biochemical, fluorescence intensity, high mannose 6-phosphate, primary screen (AID 1220)
T7 sequence (P34949 whole entry): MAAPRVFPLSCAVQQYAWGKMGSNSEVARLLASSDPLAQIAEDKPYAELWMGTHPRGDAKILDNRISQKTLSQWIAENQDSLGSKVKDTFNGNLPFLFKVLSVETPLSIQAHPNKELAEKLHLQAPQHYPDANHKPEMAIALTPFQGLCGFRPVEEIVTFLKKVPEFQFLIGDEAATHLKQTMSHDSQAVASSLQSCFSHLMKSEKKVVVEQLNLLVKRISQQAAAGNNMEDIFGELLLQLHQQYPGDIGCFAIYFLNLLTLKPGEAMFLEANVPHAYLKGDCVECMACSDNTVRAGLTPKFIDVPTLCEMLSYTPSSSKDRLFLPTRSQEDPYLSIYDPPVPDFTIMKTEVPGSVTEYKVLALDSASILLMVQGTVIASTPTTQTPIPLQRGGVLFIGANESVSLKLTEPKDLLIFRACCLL

[11] = target: T7, Mannose-6-phosphate isomerase; experiment: MPI enzyme activity inhibition – biochemical, fluorescence intensity, coupled assay, primary screen (AID 1209)
[12] = target: Intestinal-type alkaline phosphatase (Homo sapiens, UniProt P09923); experiment: Dose Response confirmation of uHTS hits from a small molecule inhibitors of human intestinal alkaline phosphatase via a luminescent assay. [Related pubchem assays (depositor defined):AID2544, AID2574]; assay type: functional
Sequence of Intestinal-type alkaline phosphatase (P09923 whole entry): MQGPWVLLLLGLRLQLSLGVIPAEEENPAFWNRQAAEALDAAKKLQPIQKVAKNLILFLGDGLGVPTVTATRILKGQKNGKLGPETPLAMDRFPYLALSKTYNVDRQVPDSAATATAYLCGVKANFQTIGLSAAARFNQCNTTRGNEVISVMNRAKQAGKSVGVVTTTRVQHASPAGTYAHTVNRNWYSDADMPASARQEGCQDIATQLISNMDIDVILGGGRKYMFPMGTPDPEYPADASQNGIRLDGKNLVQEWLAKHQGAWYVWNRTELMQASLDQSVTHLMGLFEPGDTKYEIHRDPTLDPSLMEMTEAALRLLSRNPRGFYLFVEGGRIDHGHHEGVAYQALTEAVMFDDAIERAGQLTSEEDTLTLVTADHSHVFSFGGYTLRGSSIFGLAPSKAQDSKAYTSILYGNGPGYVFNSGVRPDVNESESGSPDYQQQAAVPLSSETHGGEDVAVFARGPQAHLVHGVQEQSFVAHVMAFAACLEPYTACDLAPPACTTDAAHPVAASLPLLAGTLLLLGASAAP

T5 sequence (Q00975 whole entry): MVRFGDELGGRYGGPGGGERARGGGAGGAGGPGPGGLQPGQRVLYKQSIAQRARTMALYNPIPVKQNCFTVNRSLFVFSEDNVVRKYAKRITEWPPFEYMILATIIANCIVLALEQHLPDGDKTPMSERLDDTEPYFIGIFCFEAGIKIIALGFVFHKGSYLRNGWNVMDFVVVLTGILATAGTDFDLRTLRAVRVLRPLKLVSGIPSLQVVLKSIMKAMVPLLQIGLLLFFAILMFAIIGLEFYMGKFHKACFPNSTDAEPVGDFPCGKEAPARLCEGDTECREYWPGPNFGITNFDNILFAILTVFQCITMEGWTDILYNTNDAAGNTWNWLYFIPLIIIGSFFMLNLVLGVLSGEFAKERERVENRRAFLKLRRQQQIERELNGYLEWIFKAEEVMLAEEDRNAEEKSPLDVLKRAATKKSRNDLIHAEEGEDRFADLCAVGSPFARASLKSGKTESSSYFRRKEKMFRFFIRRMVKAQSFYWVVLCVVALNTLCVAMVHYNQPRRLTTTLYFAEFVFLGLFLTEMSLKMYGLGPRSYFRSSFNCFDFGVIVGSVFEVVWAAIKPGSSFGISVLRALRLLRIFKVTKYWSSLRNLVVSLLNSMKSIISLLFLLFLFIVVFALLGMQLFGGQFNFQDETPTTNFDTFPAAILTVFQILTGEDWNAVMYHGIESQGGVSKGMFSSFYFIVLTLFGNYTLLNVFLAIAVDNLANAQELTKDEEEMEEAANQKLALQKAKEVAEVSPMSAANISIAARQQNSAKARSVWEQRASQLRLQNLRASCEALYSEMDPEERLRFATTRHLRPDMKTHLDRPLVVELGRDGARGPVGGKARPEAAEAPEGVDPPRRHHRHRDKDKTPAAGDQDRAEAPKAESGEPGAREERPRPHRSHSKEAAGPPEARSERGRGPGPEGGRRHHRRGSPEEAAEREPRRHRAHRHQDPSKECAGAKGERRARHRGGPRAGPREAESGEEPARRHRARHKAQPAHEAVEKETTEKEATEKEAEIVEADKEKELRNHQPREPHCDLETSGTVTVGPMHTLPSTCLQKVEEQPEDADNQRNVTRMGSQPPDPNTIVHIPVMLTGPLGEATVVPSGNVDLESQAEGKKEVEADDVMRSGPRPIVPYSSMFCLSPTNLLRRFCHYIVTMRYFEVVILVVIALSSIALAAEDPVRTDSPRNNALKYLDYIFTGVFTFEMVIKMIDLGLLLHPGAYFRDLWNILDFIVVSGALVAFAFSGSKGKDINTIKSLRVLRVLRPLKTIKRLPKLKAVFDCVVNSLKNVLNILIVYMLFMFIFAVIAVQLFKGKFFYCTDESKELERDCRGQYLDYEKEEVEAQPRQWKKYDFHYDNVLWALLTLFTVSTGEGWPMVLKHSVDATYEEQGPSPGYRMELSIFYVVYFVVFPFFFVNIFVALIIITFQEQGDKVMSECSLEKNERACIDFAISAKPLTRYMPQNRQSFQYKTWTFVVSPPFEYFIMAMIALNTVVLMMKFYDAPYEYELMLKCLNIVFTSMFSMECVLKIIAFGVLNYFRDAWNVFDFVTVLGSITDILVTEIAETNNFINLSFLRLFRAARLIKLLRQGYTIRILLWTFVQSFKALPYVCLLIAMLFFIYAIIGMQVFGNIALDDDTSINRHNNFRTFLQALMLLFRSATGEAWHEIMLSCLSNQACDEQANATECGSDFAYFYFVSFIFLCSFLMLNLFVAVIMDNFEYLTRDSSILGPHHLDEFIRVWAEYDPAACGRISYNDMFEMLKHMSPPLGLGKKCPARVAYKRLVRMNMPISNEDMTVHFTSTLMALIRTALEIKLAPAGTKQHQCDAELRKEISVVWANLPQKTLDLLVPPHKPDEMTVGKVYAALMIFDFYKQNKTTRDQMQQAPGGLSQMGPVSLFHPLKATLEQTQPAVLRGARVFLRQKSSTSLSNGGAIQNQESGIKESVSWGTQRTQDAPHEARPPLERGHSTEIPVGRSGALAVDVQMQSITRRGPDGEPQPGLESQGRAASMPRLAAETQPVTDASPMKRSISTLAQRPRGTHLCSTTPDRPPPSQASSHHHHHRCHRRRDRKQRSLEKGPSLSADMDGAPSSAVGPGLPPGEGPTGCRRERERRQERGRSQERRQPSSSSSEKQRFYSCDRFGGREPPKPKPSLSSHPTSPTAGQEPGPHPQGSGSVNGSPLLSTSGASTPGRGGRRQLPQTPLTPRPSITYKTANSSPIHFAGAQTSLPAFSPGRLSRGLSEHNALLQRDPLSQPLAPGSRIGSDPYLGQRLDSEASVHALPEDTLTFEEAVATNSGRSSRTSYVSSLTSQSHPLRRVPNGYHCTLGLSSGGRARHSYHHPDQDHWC
T5 sequence (Q02410 whole entry): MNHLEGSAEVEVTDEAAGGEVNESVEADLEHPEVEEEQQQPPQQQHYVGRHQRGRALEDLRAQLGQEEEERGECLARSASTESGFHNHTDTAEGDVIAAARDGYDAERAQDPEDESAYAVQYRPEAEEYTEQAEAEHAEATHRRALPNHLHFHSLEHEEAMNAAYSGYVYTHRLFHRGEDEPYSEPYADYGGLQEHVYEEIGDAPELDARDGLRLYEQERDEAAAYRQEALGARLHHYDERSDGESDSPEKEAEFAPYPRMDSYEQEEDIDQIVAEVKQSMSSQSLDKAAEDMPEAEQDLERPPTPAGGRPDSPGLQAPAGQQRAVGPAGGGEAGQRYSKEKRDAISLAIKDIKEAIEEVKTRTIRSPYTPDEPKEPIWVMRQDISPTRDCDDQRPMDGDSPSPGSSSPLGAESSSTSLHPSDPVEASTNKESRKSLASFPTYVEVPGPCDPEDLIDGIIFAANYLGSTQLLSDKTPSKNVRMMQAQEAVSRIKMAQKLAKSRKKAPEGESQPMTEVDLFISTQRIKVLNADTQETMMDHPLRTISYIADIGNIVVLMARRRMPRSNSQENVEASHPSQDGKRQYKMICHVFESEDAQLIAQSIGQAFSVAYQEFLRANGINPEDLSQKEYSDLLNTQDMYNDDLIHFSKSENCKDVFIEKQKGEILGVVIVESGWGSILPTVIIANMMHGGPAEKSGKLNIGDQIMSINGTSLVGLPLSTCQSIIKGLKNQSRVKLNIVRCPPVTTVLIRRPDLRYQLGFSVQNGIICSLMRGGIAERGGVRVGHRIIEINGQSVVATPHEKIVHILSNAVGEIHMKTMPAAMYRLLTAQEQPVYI
Sequence of Glyceraldehyde-3-phosphate dehydrogenase (P04406 whole entry): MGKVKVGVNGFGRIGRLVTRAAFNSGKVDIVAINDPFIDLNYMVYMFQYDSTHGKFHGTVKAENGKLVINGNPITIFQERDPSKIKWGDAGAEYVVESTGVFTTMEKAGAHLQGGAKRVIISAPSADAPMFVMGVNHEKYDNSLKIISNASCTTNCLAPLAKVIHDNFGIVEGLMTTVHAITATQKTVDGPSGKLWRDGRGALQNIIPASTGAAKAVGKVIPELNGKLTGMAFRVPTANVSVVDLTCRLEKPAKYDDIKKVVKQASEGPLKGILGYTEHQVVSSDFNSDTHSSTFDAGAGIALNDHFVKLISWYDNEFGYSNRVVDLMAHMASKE
Sequence of Induced myeloid leukemia cell differentiation protein Mcl-1 (Q07820 whole entry): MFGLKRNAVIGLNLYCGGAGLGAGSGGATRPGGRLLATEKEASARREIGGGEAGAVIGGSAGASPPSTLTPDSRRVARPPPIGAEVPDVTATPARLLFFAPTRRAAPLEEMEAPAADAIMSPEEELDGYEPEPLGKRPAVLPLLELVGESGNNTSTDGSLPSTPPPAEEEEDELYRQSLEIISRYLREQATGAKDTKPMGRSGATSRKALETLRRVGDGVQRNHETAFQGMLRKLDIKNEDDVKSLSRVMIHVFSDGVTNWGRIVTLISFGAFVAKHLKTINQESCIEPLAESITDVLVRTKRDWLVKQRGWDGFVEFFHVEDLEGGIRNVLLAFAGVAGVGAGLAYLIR
Sequence of G-protein coupled receptor 55 (Q9Y2T6 whole entry): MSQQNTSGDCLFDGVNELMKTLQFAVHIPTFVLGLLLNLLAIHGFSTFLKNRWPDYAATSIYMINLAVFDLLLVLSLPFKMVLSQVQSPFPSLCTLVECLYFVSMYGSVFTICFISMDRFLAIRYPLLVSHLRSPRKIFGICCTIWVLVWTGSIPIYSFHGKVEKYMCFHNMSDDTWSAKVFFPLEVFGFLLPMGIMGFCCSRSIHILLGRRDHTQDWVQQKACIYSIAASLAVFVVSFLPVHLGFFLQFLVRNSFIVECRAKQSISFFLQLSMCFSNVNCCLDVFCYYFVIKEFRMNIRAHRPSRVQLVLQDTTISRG

Question: With `Cc1c(Cl)cnc(NC(=O)COC(=O)C(NC(=O)c2ccco2)C(C)C)c1Cl` (stereo unspecified) as the compound, how does the IC50 (Bcl-2-like protein 10) read?
Answer: 18.2 µM (active)

Question: Which EC50 [1] does the source give for `CCCN(CCC)c1nc2c(C)cccn2c(=O)c1/C=C1/SC(=S)N(Cc2ccco2)C1=O` here?
Answer: 0.352 µM (active)

Question: What about the EC50 [2] of the same compound?
Answer: 2.97 µM (active)

Question: And the EC50 [3]?
Answer: > 30 µM (not active)

Question: With `CC(C)c1nc2oc3c(NCCO)ncnc3c2c2c1COC(C)(C)C2` as the compound, how does the IC50 (Hexokinase HKDC1) read?
Answer: 3.39 µM (active)

Question: Which IC50 [4] does the source give for `Cc1ccc2[nH]c(SCC(=O)Nc3ccc(O)c(C(=O)O)c3)nc2c1` here?
Answer: > 100 µM (not active)

Question: Which IC50 (Bcl-2-like protein 10) does the source give for `C=CCN1C(=O)/C(=C2/C(=O)N(CC(=O)O)c3ccccc32)S/C1=N/c1nccs1` here?
Answer: 3.03 µM (active)

Question: What about the IC50 [5] of the same compound?
Answer: 2.78 µM (active)

Question: With `COC(=O)c1cc2ccsc2n1CC(=O)Nc1ccc(N(C)C)cc1` as the compound, how does the EC50 [1] read?
Answer: 4.34 µM (active)

Question: What about the IC50 (Estrogen receptor) of the same compound?
Answer: 47.3 µM (not active)

Question: What about the EC50 [3] of the same compound?
Answer: > 30 µM (not active)

Question: Which IC50 [6] does the source give for `CSc1nnc(NC(=O)CSc2nc(C)cc(C)n2)[nH]1` here?
Answer: > 100 µM (inactive)

Question: Which EC50 [2] does the source give for `CC(=O)Nc1ccc(SC[C@H](CC(C)C)N2CCN(CCc3ccccc3)CCC2=O)cc1` here?
Answer: 9 µM (active)

Question: For `Cc1cc(Cl)c(S(=O)(=O)Nc2ccc3c(c2)OCO3)cc1OCC(N)=O`, which IC50 (Estrogen receptor) is on record?
Answer: > 50 µM (not active)

Question: And the IC50 (Estrogen receptor beta)?
Answer: > 50 µM (not active)

Question: Which IC50 [7] does the source give for `CC1=C(C(=O)O)N2C(=O)C(NC(=O)c3nn(C)c(C)c3Cl)C2SC1` (stereo unspecified) here?
Answer: 9.8 µM (active)

Question: And the IC50 [8]?
Answer: > 50 µM (inactive)

Question: Which results are given for `COc1ccccc1Oc1ccc(S(=O)(=O)Nc2cccnc2)cc1`?
Answer: IC50 [6]: > 100 µM (inactive); IC50 [4]: > 100 µM (not active)

Question: Which results are given for `O=C1[C@H]2CCCC[C@H]2C(=O)N1c1nnc(Cc2ccc(F)cc2)[nH]1`?
Answer: IC50 [6]: 10.2 µM (active); IC50 [4]: > 100 µM (not active)

Question: Which IC50 [9] does the source give for `CCCCCn1c(NC(=O)c2ccco2)c(C(=O)OCC)c2nc3ccccc3nc21` here?
Answer: 20.3 µM (active)

Question: And the IC50 [10]?
Answer: > 50 µM (not active)

Question: What about the IC50 [11] of the same compound?
Answer: > 50 µM (not active)

Question: With `O=C(CN1CCN(C(=O)N2CCCCC2)CC1)Nc1ccc(F)cc1` as the compound, how does the IC50 [12] read?
Answer: > 100 µM (inactive)

Question: With `Cc1snc(SCC(=O)c2ccc([N+](=O)[O-])cc2)c1C#N` as the compound, how does the IC50 [11] read?
Answer: 33.9 µM (active)

Question: For `N#CC(C#N)=NNc1ccc(S(N)(=O)=O)cc1`, which IC50 [7] is on record?
Answer: 16.9 µM (active)

Question: And the IC50 [8]?
Answer: > 50 µM (inactive)

Question: And the IC50 [5]?
Answer: 4.71 µM (active)

Question: With `Cc1cc(C)nc(NC(=O)CSc2nn(C)c(=S)s2)n1` as the compound, how does the IC50 (Estrogen receptor) read?
Answer: 8.77 µM (active)

Question: For `Cc1nc2c(c(=O)c3ccccc3n2C)c(=O)n1-c1ccccc1`, which IC50 (Hexokinase HKDC1) is on record?
Answer: 11.8 µM (active)
